Assay: in vivo
Conditions: SCID/rag2, mouse, plasma, iv, 10 mg/kg

- AUC: 112 ng·h/mL
SMILES: CCC1=C[C@@H]2CN(C1)Cc1c([nH]c3ccccc13)[C@@](C(=O)OC)(c1cc3c(cc1OC)N(C)[C@H]1[C@@](O)(C(=O)OC)[C@H](OC(C)=O)[C@]4(CC)C=CCN5CC[C@]31[C@@H]54)C2 [free vinorelbine, vinorelbine]

Reference: US10722464B2, “Compositions for delivery of drug combinations” (priority 2001, dated 2020)
